# Laboratory results: paper PMC3558502, “Acaricide, Fungicide and Drug Interactions in Honey Bees (Apis mellifera)” (PLoS ONE, 2013)
# “Also recorded” adds a separate entry of the source. Structures can show the parent of a compound that is named as a salt. Where two headings read alike, the source gives them in different places.
# Experiments:
# Apis mellifera = conditions: cited from earlier work
# honey bees = assay: Estimated daily exposure and margin of safety of acaricide formulations; design: species or system Apis mellifera; conditions: LD10 divided by estimated daily dose
# Text: High sublethal doses were deliberately chosen as pre-treatments to make the magnitude of any interactive effect between the pre-treatment and acaricide as large as possible. However, to determine the hazard posed by acaricide interactions in bee hives, the actual exposure bees receive when treated with formulated acaricides must be considered. […] The LD10 can be determined from the fitted dose response lines (Table S1). The daily dose can be estimated by first determining the amount of active ingredient present in each acaricide formulation, correcting this value by the amount of active ingredient available for uptake by the bees (e.g. 10% of the total acaricide content in strip formulations is taken up by bees, [50]) and dividing this quantity by the number of days the acaricide formulation is present in the hive. The estimated daily dose calculated in this way can be validated using published pesticide residue data, [51].
# [1] = test system: honey bees (Apis mellifera); assay: Lethal dose bioassay: topical sublethal pre-treatment (acaricide, fungicide or enzyme inhibitor), then topical acaricide dose series, 2009; conditions: for interactive effect between pre-treatment and acaricide toxicity (in words): 2009 topical pre-treatments, partner named in the value; for LD10: from fitted dose-response lines, control pre-treatment, 2009 (Table S1)
# Experimental: Bees were first treated with a sublethal dose of either an acaricide, a fungicide, an antimicrobial drug, or an enzyme inhibitor. Bees were then treated with a range of lethal doses of an acaricide to estimate the dose-response curve. […] We tested 25 of the 6×6 possible acaricide-acaricide combinations, 24 of the 6×5 fungicide-acaricide combinations, 15 of the 6×3 antimicrobial-acaricide combinations and 9 of the 6×3 enzyme inhibitor-acaricide combinations. […] The fungicides propiconazole, fenbuconazole, metconazole and myclobutanil were tested in combination with a single acaricide, tau-fluvalinate.
# (§1) Frames of late-stage brood were collected from these colonies and placed in a dark, humid incubator (Darwin Chambers Co., St. Louis, MO, model H024) at 34°C. Newly emerged adults were brushed from frames daily into screened wooden cages (21×14×12 cm) and weighed as a group to estimate the number of bees. Each cohort of 200–800 bees was provisioned with 1∶1 (w/w) granulated sugar dissolved in water and held for 3–4 days in the incubator.
# Each treatment series was conducted using 3–4 day-old adult worker bees divided into 8–13 subgroups of 20 bees each. Bees were narcotized with carbon dioxide and each subgroup was placed in a separate wax-coated paper cup (177 cm^3; Solo S306, Highland Park, IL) covered with cotton cheesecloth and secured with two rubber bands. A maximum sublethal pre-treatment of an acaricide, fungicide, enzyme inhibitor, or solvent control, was then applied to bees in all subgroups. […] Sublethal doses used as pre-treatment for acaricides were determined in preliminary bioassays or previous studies and corresponded to doses less than or near the LD10 values determined in the current experiment. […] All doses were delivered topically in 1 µl of acetone and applied to the thoracic notum using a 50 µl syringe fitted in a repeating dispenser (Hamilton PB-600, Reno, NV). A control pre-treatment consisting of 1 µl of pure acetone was also included.
# (§2) Groups of pre-treated bees were allowed to recover for 1 h to minimize mortality due to extended carbon dioxide anaesthetization. Each subgroup of approximately 20 bees, of the 8–13 dose-groups in the bioassay, was then anaesthetized again and treated topically with either an acetone solvent control or one of a range of 7–12 acaricide doses, including doses eliciting 0% and 100% mortality, and at least three doses causing intermediate mortality. After treatment sucrose water was provided to groups of treated bees through a punctured 1.5 ml microcentrifuge tube following dosing, and bees were returned to the 34°C incubator. […] Immobile bees were scored as dead. […] At least three replicate treatment series were performed for each combination of pre-treatment and acaricide. Separately diluted acaricide dose series and bees taken from different colonies were used for each replicate treatment.
# (§3) Lines were fitted to dose-mortality data on a log-probit scale for each pretreatment-acaricide combination using ‘glm’ in the R statistical package. […] Interactive effects between acaricides and the various pre-treatments were determined with pairwise tests comparing the dose-response lines for bees receiving pre-treatments with bees receiving a control pre-treatment using a test analogous to ANCOVA [26]. The full model, which includes the dose of acaricide as a covariate, pre-treatment as a categorical factor and the interaction between acaricide dose and pre-treatment, was compared with two simplified models (Figure 3). A process of model simplification was undertaken in which the explanatory power of model terms was assessed by reference to the likelihood ratio [38]. The first simplified model lacks the interaction term and tests the interaction between pre-treatment and acaricide dose, essentially testing for differences in the slope of the two dose-response lines (also known as a test of the “hypothesis of parallelism” [26]).
# [2] = test system: honey bees (Apis mellifera); assay: Lethal dose bioassay: tau-fluvalinate after PBO or SBI fungicide pre-treatment at 0.1, 1 or 10 nmol per bee, 2010; assay type: in vivo
# Text: Acetone was also applied as a pre-treatment control.
# Immobile bees were scored as dead.
# [3] = test system: honey bees (Apis mellifera); conditions: study conducted in 2008 using an identical protocol; cited from earlier work
# [4] = test system: honey bees (Apis mellifera); assay: Lethal dose bioassay: antimicrobial drugs fed in sucrose syrup, then topical acaricide dose series, 2010; conditions: for interactive effect between antimicrobial pre-treatment and acaricide toxicity (in words): 2010 oral pre-treatments, partner named in the value
# Experimental: as §1, §2, §3
# [5] = tau-fluvalinate topical dose series after acetone control pre-treatment
smiles,measurement,setting,value
O=C(O)C(=O)O [oxalic acid],LD10,Apis mellifera,176.7c µg/bee
Cc1ccc(C(C)C)c(O)c1 [thymol],margin of safety of acaricide formulations,honey bees,2.0 to 7.8 fold
"CCOC(=O)/C=C\C(=O)OCC [DEM, diethyl maleate]",interactive effect between pre-treatment and acaricide toxicity (in words),[1],did not interact with any acaricide tested
O=C(Nc1ccccc1-c1ccc(Cl)cc1)c1cccnc1Cl [boscalid],interactive effect between pre-treatment and acaricide toxicity (in words),[1],did not interact with any acaricide tested
CC(C)[C@@H](Nc1ccc(C(F)(F)F)cc1Cl)C(=O)OC(C#N)c1cccc(Oc2ccccc2)c1 (stereo partly shown) [tau-fluvalinate],interactive effect between SBI fungicide pre-treatment and tau-fluvalinate toxicity (in words),"[2]; 2010, SBI fungicides",an antagonistic interaction was observed at the lowest fungicide doses (0.1 nmol or approximately 0.03 µg per bee)
same,LD50 for tau-fluvalinate,"[2]; 2010, topical, pre-treatment: control (acetone)",9.0 µg per bee
same,interaction between tau-fluvalinate and PBO,[2]; PBO 10 nmol dose level,5.8 fold
same,increase in toxicity of tau-fluvalinate,[2]; pre-treated with any of the 5 fungicides or PBO at the 1 nmol dose,1.4 to 2.3 fold
same,increase in toxicity of tau-fluvalinate,[2]; pre-treated with any of the 5 fungicides or PBO at the 10 nmol dose,12 to 74 fold
same,dose-response line intercept ± SE,[2]; [5],-2.72 ± 0.24
same,dose-response line slope ± SE,[2]; [5],2.85 ± 0.26
same,LD50 for tau-fluvalinate,[3],6.75 µg per bee
same,LD50 of the acaricide,"[1]; 2009, topical, adult workers, pre-treatment: control, 1 µl acetone",19.8 µg per bee
same,increase in toxicity of tau-fluvalinate,"[1]; 2009 experiments, prochloraz pre-treatment",~2000 fold
same,interactive effect between pre-treatment and acaricide toxicity (in words),[1],tau-fluvalinate toxicity was transitively increased when thymol was applied as a pre-treatment; also recorded: chlorothalonil increased the toxicity of both thymol and tau-fluvalinate; also recorded: Pyraclostrobin and boscalid applied together in a blend like Pristine moderately increased the toxicity of tau-fluvalinate
same,increase in toxicity of tau-fluvalinate,[1]; amitraz pre-treatment,5 fold
same,increase in toxicity of tau-fluvalinate,[1]; fenpyroximate pre-treatment,8 fold
same,LD10,[1],3.08 µg/bee
same,LD50 of the acaricide,"[4]; 2010, topical acaricide, bees fed control 1:1 sucrose syrup",9.2 µg per bee
same,interactive effect between antimicrobial pre-treatment and acaricide toxicity (in words),[4],pretreating bees with oxytetracycline had no significant effect on the LD50 of tau-fluvalinate
CC[C@H]1OC(=O)C[C@@H](O)[C@H](C)[C@@H](O[C@@H]2O[C@H](C)[C@@H](O[C@H]3C[C@@](C)(O)[C@@H](O)[C@H](C)O3)[C@H](N(C)C)[C@H]2O)[C@@H](CC=O)C[C@@H](C)C(=O)/C=C/C(C)=C/[C@@H]1CO[C@@H]1O[C@H](C)[C@@H](O)[C@@H](OC)[C@H]1OC [tylosin],interactive effect between antimicrobial pre-treatment and acaricide toxicity (in words),[4],did not interact with any acaricide tested
Cc1ccc(/N=C/N(C)/C=N/c2ccc(C)cc2C)c(C)c1 [amitraz],margin of safety of acaricide formulations,honey bees,2.0 to 7.8 fold
same,interactive effect between pre-treatment and acaricide toxicity (in words),[1],toxicity of amitraz was unchanged when bees were pre-treated with tau-fluvalinate; also recorded: oxalic acid pre-treatment reduced the toxicity of amitraz nearly four-fold
same,LD10,[1],0.92 µg/bee
same,interactive effect between antimicrobial pre-treatment and acaricide toxicity (in words),[4],this combination had no effect on acute mortality
